From patent US9562035B2, “Benzamide derivative useful as FASN inhibitors for the treatment of cancer” (Janssen Pharmaceutica NV, priority 2013, dated 2017) come the findings set out here.

In experiment [1] the target is T1, hFASN enzyme (full length) (Homo sapiens, UniProt P49327).
T1 construct: 10 μL hFASN enzyme (full length, 300 ng, purified in house); made in house
In words: Fatty Acid Synthase (FASN) Inhibition Scintillation Proximity Assay. It counts as biochemical. The settings on record: for IC50: mean where tested more than once, ~ = standard error of pIC50 larger than 0.5; for inhibition at 10 µM: read-out: FASN % Effect @1E−05M. In a few lines:
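Eight compound concentrations (0.01–30 μM) tested in pH 7.5 phosphate buffer with DTT; human full-length enzyme converted [3H]-acetyl-CoA plus malonyl-CoA, with NADPH, over 60 min at room temperature. Hydrophobic [3H]-palmitate detected by bead proximity scintillation imaging; control-normalised data fitted for IC50/pIC50.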
On the technique in general: SPA uses beads or plates that emit light when radiolabelled molecules are held near them.

Experiment [2] addresses T2, FASN Keto-reductase Domain (Homo sapiens, UniProt P49327).
T2 construct: 10 μL hFASN enzyme (full length, 300 ng, purified in house) and 360 μM NADPH; made in house
The experiment can be described thus: Fatty Acid Synthase Keto-Reductase Domain (FASN KR) Inhibition. It counts as biochemical. The settings on record: mean where tested more than once; read-out: FASN K-R Domain pIC50 (converted). The method in brief:
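Keto-reductase activity followed as NADPH consumption (A340 drop between 0 and 20 min, room temperature) using in-house full-length hFASN, 360 μM NADPH and ethyl acetoacetate substrate (180 mM stock), pH 7.5 phosphate buffer.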

Experiment [3] relates to A2780 ovarian cells. The experiment can be described thus: A2780 Ovarian Cell Proliferation Assay in Lipid Reduced Medium, without Palmitate. The note with it: Homo sapiens, A2780; lipid reduced medium, without palmitate, 96 h, MTT; read-out: Proliferation A2780 w/o Palmitate pIC50 (converted). In kind it is cell-based. In a few lines: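 A2780 cells were seeded in 10% FCS medium and switched next day to 10% lipid-reduced serum without palmitate. Compounds at 0.01–30 μM were added with 0.2% DMSO, 0.2% fatty-acid-free BSA and 0.25% ethanol final. After 96 h, MTT absorbance at 544 nm was normalized to plate controls, and IC50/pIC50 came from a 4-parameter logistic fit.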

Experiment [4] concerns A2780 ovarian cells. In words: A2780 Ovarian Cell Proliferation Assay in Lipid Reduced Medium, with Palmitate (control). The settings on record: Homo sapiens, A2780; lipid reduced medium, 25 μM palmitate, 96 h, MTT; read-out: Proliferation A2780 with Palmitate pIC50 (converted). In kind it is cell-based. The method in brief:
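Read-out was MTT absorbance at 544 nm after 96 h at 37 °C. Cells grown overnight in RPMI1640/10% FCS were moved to 10% lipid-reduced serum with compound plus palmitate (final 25 μM, 0.2% fatty-acid-free BSA, 0.2% DMSO). IC50 came from least-squares curve fitting, expressed as −log(IC50).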

T1 sequence (P49327 whole entry): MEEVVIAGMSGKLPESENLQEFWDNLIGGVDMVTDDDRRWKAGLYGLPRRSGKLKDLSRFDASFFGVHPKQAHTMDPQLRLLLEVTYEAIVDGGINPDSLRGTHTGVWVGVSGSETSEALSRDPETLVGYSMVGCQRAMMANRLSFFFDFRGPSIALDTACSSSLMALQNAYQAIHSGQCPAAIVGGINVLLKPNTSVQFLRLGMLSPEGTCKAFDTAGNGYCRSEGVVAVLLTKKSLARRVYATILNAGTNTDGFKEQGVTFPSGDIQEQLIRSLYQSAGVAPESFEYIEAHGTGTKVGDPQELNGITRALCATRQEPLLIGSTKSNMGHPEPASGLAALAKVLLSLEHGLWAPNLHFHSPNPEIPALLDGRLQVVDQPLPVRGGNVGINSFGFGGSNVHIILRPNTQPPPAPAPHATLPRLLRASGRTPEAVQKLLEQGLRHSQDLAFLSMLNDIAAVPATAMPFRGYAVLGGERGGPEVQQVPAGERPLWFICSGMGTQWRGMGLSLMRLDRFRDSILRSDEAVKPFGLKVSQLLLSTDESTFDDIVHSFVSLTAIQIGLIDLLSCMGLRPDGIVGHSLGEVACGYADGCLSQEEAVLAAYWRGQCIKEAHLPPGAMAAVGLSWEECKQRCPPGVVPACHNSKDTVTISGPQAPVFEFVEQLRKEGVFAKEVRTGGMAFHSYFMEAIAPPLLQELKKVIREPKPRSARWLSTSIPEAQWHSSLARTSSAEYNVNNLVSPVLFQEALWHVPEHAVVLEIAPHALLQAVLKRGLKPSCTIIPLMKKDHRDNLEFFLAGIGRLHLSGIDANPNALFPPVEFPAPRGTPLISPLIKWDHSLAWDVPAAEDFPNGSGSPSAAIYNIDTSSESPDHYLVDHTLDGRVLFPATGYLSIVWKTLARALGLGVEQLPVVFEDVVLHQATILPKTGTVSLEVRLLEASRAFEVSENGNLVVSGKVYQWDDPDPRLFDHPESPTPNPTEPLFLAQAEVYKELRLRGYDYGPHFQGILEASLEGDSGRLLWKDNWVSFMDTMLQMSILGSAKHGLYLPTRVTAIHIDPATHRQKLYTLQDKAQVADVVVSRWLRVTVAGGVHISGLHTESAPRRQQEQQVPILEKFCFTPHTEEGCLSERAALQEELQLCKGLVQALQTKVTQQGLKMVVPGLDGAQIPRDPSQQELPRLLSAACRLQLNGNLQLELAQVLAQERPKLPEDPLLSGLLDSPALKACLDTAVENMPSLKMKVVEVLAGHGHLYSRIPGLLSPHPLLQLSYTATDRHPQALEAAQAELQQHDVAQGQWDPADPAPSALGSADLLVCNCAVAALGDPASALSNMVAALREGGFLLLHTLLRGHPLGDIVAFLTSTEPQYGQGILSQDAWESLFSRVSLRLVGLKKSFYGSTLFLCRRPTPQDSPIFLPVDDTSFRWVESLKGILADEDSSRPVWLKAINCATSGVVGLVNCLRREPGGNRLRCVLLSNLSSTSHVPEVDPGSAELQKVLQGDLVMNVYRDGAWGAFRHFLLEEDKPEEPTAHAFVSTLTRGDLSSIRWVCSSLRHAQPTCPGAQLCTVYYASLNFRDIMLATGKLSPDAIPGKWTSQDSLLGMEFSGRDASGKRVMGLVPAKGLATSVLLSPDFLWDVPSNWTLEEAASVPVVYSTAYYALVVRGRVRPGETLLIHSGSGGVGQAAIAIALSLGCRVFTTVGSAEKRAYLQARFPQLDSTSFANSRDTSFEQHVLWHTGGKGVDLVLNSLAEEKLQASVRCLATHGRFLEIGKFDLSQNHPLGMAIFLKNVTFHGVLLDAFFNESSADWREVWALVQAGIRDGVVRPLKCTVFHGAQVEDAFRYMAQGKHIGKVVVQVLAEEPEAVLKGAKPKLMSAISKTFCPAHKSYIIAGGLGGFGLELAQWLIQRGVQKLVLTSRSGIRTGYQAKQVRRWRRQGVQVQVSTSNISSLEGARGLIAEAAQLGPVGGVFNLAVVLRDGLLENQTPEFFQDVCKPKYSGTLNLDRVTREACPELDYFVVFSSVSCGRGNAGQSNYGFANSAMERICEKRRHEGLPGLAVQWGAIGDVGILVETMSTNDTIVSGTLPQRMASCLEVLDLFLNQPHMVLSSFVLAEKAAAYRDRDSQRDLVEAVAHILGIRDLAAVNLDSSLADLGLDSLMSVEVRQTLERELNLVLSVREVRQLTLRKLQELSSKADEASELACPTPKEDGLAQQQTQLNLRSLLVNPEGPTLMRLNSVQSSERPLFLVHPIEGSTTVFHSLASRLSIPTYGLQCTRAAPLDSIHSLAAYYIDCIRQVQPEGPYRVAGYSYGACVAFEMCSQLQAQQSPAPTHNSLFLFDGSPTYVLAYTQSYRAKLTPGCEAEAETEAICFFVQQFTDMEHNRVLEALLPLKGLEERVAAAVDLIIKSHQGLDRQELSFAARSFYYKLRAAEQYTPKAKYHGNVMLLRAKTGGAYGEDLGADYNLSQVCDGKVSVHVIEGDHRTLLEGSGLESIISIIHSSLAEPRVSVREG
T2 sequence (P49327 whole entry, the tested form may be a part): as the sequence (P49327 whole entry) above

For `Cc1ccc(C(=O)N2CCC(c3ccc(-c4cn(C)nc4C)cc3)CC2)cc1NC(=O)c1ccc(NC(C)C)nc1` [Compound 245, N-(5-(4-(4-(1,3-dimethyl-1H-pyrazol-4-yl)phenyl)piperidine-1-carbonyl)-2-methylphenyl)-6-(isopropylamino)nicotinamide], the IC50 was 33.9 nM in experiment [1], 75.9 nM in experiment [2], about 31.6 nM in experiment [3] and over 10000 nM in experiment [4]. In addition, in experiment [1], the inhibition at 10 µM came to 108%.

Regarding `Cc1ccc(C(=O)N2CCC(c3ccc(-c4cnn(C)c4C)cc3)CC2)cc1NC(=O)c1ccc(NC(C)C)nc1` [Compound 246, N-(5-(4-(4-(1,5-dimethyl-1H-pyrazol-4-yl)phenyl)piperidine-1-carbonyl)-2-methylphenyl)-6-(isopropylamino)nicotinamide], the IC50 in experiment [1] is 53.7 nM; in experiment [2], 245 nM; in experiment [3] it was 112 nM; in experiment [4], 8320 nM. In experiment [1], the inhibition at 10 µM stood at 110%.

In the case of `Cc1ccc(C(=O)N2CCC(c3ccc(-c4cnn(C(C)C)c4)cc3)CC2)cc1NC(=O)c1ccc(NC(C)C)nc1` [Compound 247, N-(5-(4-(4-(1-isopropyl-1H-pyrazol-4-yl)phenyl)piperidine-1-carbonyl)-2-methylphenyl)-6-(isopropylamino)nicotinamide], the IC50 was 33.9 nM in experiment [1], 91.2 nM in experiment [2], 38.9 nM in experiment [3] and 6170 nM in experiment [4]. Further, the inhibition at 10 µM in experiment [1] was 112%.

As for `Cc1ccc(C(=O)N2CCC(c3ccc(-c4cnn(C5CCC5)c4)cc3)CC2)cc1NC(=O)c1ccc(NC(C)C)nc1` [Compound 248, N-(5-(4-(4-(1-cyclobutyl-1H-pyrazol-4-yl)phenyl)piperidine-1-carbonyl)-2-methylphenyl)-6-(isopropylamino)nicotinamide], the IC50 was 43.7 nM in experiment [1], 93.3 nM in experiment [2], 35.5 nM in experiment [3] and 3550 nM in experiment [4]. Besides, the inhibition at 10 µM in experiment [1] worked out at 108%.

Turning to `Cc1ccc(C(=O)N2CCC(c3ccc(-c4cnn(CC5CC5)c4)cc3)CC2)cc1NC(=O)c1ccc(NC(C)C)nc1` [Compound 249, N-(5-(4-(4-(1-(cyclopropylmethyl)-1H-pyrazol-4-yl)phenyl)piperidine-1-carbonyl)-2-methylphenyl)-6-(isopropylamino)nicotinamide], the IC50 was 53.7 nM in experiment [1], 100 nM in experiment [2], 72.4 nM in experiment [3] and 5250 nM in experiment [4]. The inhibition at 10 µM in experiment [1] was determined as 109%.

As for `Cc1ccc(C(=O)N2CCC(c3ccc(-c4ccc(F)cc4)cc3)CC2)cc1NC(=O)c1ccc(NC(C)C)nc1` [Compound 250, N-(5-(4-(4′-fluoro-[1,1′-biphenyl]-4-yl)piperidine-1-carbonyl)-2-methylphenyl)-6-(isopropylamino)nicotinamide], the IC50 in experiment [1] was 229 nM; in experiment [2], 209 nM; in experiment [3], 490 nM; in experiment [4], 1620 nM. Besides, in experiment [1], the inhibition at 10 µM stood at 65%.

Take `Cc1ccc(C(=O)N2CCC(c3ccc(-c4ccco4)cc3)CC2)cc1NC(=O)c1ccc(NC(C)C)nc1` [Compound 252, N-(5-(4-(4-(furan-2-yl)phenyl)piperidine-1-carbonyl)-2-methylphenyl)-6-(isopropylamino)nicotinamide]: the IC50 in experiment [1] was 166 nM; in experiment [2], 437 nM; in experiment [3], 347 nM; in experiment [4], 1450 nM. Further, the inhibition at 10 µM in experiment [1] was 106%.

In the case of `Cc1ccc(C(=O)N2CCC(c3ccc(-c4cnn(CCN(C)C)c4)cc3)CC2)cc1NC(=O)c1ccc(NC(C)C)nc1` [Compound 253, N-(5-(4-(4-(1-(2-(dimethylamino)ethyl)-1H-pyrazol-4-yl)phenyl)piperidine-1-carbonyl)-2-methylphenyl)-6-(isopropylamino)nicotinamide], the IC50 in experiment [1] is 316 nM; in experiment [2] it was 1230 nM; in experiment [3] it was about 257 nM; in experiment [4] it was about 1860 nM. Also, the inhibition at 10 µM in experiment [1] stood at 104%.

Consider `Cc1ccc(C(=O)N2CCC(c3ccc(-c4cnn(C5CC5)c4)cc3)CC2)cc1NC(=O)c1ccc(NC(C)C)nc1` [Compound 254, N-(5-(4-(4-(1-cyclopropyl-1H-pyrazol-4-yl)phenyl)piperidine-1-carbonyl)-2-methylphenyl)-6-(isopropylamino)nicotinamide], for which the IC50 in experiment [1] is 42.7 nM; in experiment [2], 53.7 nM; in experiment [3], 18.2 nM; in experiment [4], about 10000 nM. For the same compound, the inhibition at 10 µM in experiment [1] worked out at 103%.

Consider `Cc1ccc(C(=O)N2CCC(c3ncc(-c4cnn(C)c4)cn3)CC2)cc1NC(=O)c1ccc(Cl)nc1` [Compound 257, 6-chloro-N-(2-methyl-5-(4-(5-(1-methyl-1H-pyrazol-4-yl)pyrimidin-2-yl)piperidine-1-carbonyl)phenyl)nicotinamide], for which the IC50 in experiment [1] is 617 nM; in experiment [2], 2040 nM; in experiment [3], 891 nM; in experiment [4], over 10000 nM. The inhibition at 10 µM in experiment [1] turned out to be 95%.

As for `Cc1ccc(C(=O)N2CCC(c3ncc(-c4cnn(C)c4)cn3)CC2)cc1NC(=O)c1ccc(NC(C)C)nc1` [Compound 258, 6-(isopropylamino)-N-(2-methyl-5-(4-(5-(1-methyl-1H-pyrazol-4-yl)pyrimidin-2-yl)piperidine-1-carbonyl)phenyl)nicotinamide], the IC50 is 245 nM in experiment [1], 1230 nM in experiment [2], 389 nM in experiment [3] and over 10000 nM in experiment [4]. Besides, in experiment [1], the inhibition at 10 µM came to 99%.

Take `Cc1ccc(C(=O)N2CC(c3ccc(-c4cccnc4N)cc3)C2)cc1NC(=O)c1ccc(Cl)nc1` [Compound 259, N-(5-(3-(4-(2-aminopyridin-3-yl)phenyl)azetidine-1-carbonyl)-2-methylphenyl)-6-chloronicotinamide]: the IC50 in experiment [1] was 56.2 nM; in experiment [2], 355 nM; in experiment [3], about 85.1 nM; in experiment [4] it was over 10000 nM. Also, the inhibition at 10 µM in experiment [1] is 103%.

Take `Cc1ccc(C(=O)N2CC(c3ccc(-c4cccnc4N)cc3)C2)cc1NC(=O)c1ccc(N2CCOCC2)nc1` [Compound 260, N-(5-(3-(4-(2-aminopyridin-3-yl)phenyl)azetidine-1-carbonyl)-2-methylphenyl)-6-morpholinonicotinamide]: the IC50 in experiment [1] was 25.1 nM; in experiment [2], 102 nM; in experiment [3] it was 34.7 nM; in experiment [4] it was over 10000 nM. The inhibition at 10 µM in experiment [1] was determined as 112%.

`Cc1ccc(C(=O)N2CCC(c3ccc(-c4cnn(-c5cccnc5)c4)cc3)CC2)cc1NC(=O)c1ccc(NC(C)C)nc1` [Compound 261, 6-(isopropylamino)-N-(2-methyl-5-(4-(4-(1-(pyridin-3-yl)-1H-pyrazol-4-yl)phenyl)piperidine-1-carbonyl)phenyl)nicotinamide]: the IC50 is 60.3 nM in experiment [1], 126 nM in experiment [2], 112 nM in experiment [3] and 3310 nM in experiment [4]. For the same compound, the inhibition at 10 µM in experiment [1] came out at 107%.

In the case of `Cn1cc(-c2ccc(C3CCN(C(=O)c4ccc(OCc5ccccc5)c(NC(=O)c5ccc(Cl)nc5)c4)CC3)cc2)cn1` [Compound 262, N-(2-(benzyloxy)-5-(4-(4-(1-methyl-1H-pyrazol-4-yl)phenyl)piperidine-1-carbonyl)phenyl)-6-chloronicotinamide], the IC50 was 263 nM in experiment [1], 1050 nM in experiment [2], 617 nM in experiment [3] and over 10000 nM in experiment [4]. In experiment [1], the inhibition at 10 µM was determined as 89%.

Turning to `Cc1ccc(C(=O)N2CCC(c3ccc(-c4cnn(C)c4)cn3)CC2)cc1NC(=O)c1ccc(Cl)nc1` [Compound 263, 6-chloro-N-(2-methyl-5-(4-(5-(1-methyl-1H-pyrazol-4-yl)pyridin-2-yl)piperidine-1-carbonyl)phenyl)nicotinamide], the IC50 in experiment [1] was 91.2 nM; in experiment [2], 479 nM; in experiment [3] it was 170 nM; in experiment [4], over 10000 nM. Moreover, the inhibition at 10 µM in experiment [1] came to 111%.

As for `Cc1ccc(C(=O)N2CCC(c3ccc(-c4cnn(C)c4)cn3)CC2)cc1NC(=O)c1ccc(NC(C)C)nc1` [Compound 264, 6-(isopropylamino)-N-(2-methyl-5-(4-(5-(1-methyl-1H-pyrazol-4-yl)pyridin-2-yl)piperidine-1-carbonyl)phenyl)nicotinamide], the IC50 in experiment [1] is 58.9 nM; in experiment [2], 219 nM; in experiment [3], 87.1 nM; in experiment [4], over 10000 nM. Also, the inhibition at 10 µM in experiment [1] was 109%.
